Consider 17 compounds from patent publication US10106578B2, “Melanocortin-1 receptor-specific linear peptides” (Palatin Technologies, Inc., priority 2012, dated 2018).

One experiment concerns the target T1, hMCR-1 (Homo sapiens, UniProt Q01726).
T1 construct: endogenous in cells; host or cells: HBL human melanoma cell line
As to the kind of experiment: Assay for agonist activity: cAMP accumulation in HBL human melanoma cells. The conditions noted are these: for Emax: compared to reference agonist NDP-α-MSH, read-out: MC-1 Emax (average; cAMP HBL); for EC50: read-out: MC-1 EC50 (average; cAMP HBL). The format is cell-based. From the text: Accumulation of intracellular cAMP was examined as a measure of the ability of the peptides of the present invention to elicit a functional response in a human melanoma cell line, HBL, that express hMCR-1 (see Kang, L., et al., “A selective small molecule agonist of melanocortin-1 receptor inhibits lipopolysaccharide-induced cytokine accumulation and leukocyte infiltration in mice,” J. Leuk. Biol. 80:897-904 (2006)) or HEK-293 cells that express hMCR-4. Confluent HBL cells that express hMCR-1 or HEK-293 cells that express recombinant hMCR-4 were detached from culture plates by incubation in enzyme-free cell dissociation buffer. Dispersed cells were suspended in Earle's Balanced Salt Solution containing 10 mM HEPES (pH 7.5), 1 mM MgCl2, 1 mM glutamine, 0.5% albumin and 0.3 mM 3-isobutyl-1-methyl-xanthine (IBMX), a phosphodiesterase inhibitor. The cells were plated in 96-well plates at a density of 0.4×10^5 cells per well for HBL cells and 0.5×10^5 cells per well for HEK-293 cells and pre-incubated for 10 minutes. Cells were exposed for 15 minutes at 37° C. to peptides of the present invention dissolved in DMSO (final DMSO concentration of 1%) at a concentration range of 0.05-5000 nM in a total assay volume of 200 μL. NDP-α-MSH was used as the reference agonist. cAMP levels were determined by an HTRF® cAMP cell-based assay system from Cisbio Bioassays utilizing cryptate-labeled anti-cAMP and d2-labeled cAMP, with plates read on a Perkin-Elmer Victor plate reader at […]. Data analysis was performed by nonlinear regression analysis with Graph-Pad PRISM® software. Maximum efficacy (Emax) values were determined for each test peptide of the present invention, compared to that achieved by the reference melanocortin agonist NDP-α-MSH.
(§1) Peptides of the following structures were synthesized and purified as described in Section 5 above, with the resulting peptide having the structure depicted. After synthesis and purification, the foregoing peptide was tested as described in Section 8 above, and average MCR-1 and MCR-4 Ki values determined as indicated. All Ki values were determined using [I^125]-NDP-α-MSH. All results are expressed in nM except for Emax values, which are percentage values.
(In general: Cyclic AMP is a second messenger, typically raised through Gs and lowered through Gi signalling.)

The target of another experiment is T2, hMCR-1a (Homo sapiens, UniProt Q01726).
T2 construct: expressed in transfected cells; host or cells: HEK-293 cells (membrane homogenates)
T2 sequence (Q01726 whole entry): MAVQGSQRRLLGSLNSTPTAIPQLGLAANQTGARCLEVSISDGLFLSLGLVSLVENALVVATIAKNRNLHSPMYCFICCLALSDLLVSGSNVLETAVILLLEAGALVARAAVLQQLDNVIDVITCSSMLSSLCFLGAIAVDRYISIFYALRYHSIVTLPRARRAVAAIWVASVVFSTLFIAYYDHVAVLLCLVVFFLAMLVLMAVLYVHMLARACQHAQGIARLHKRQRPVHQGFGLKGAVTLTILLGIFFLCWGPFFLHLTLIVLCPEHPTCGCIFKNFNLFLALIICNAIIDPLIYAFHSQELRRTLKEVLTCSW
As to the kind of experiment: Competitive inhibition binding assay using [I125]-NDP-α-MSH, hMCR-1a membranes. The settings on record: HEK-293 membranes, recombinant human MCR-1, [I125]-NDP-α-MSH; read-out: MC-1 Ki (average). On the procedure: (§2) A competitive inhibition binding assay was performed using membrane homogenates prepared from HEK-293 cells that express recombinant hMCR-1a or hMCR-4 (in each instance where the h prefix refers to human), or alternatively membrane homogenates from B16-F10 mouse melanoma cells containing endogenous murine MCR-1. In the examples that follow, all MCR-1 and MCR-4 values are for human recombinant receptors, unless otherwise noted. Assays were performed in 96 well polypropylene round-bottom plates (VWR catalog number 12777-030). Membrane homogenates were incubated with 0.1 nM [I^125]-NDP-α-MSH (Perkin Elmer) and increasing concentrations of test peptides of the present invention in buffer containing 25 mM HEPES buffer (pH 7.5) with 100 mM NaCl, 2 mM CaCl2, 2 mM MgCl2, 0.3 mM 1,10-phenanthroline, and 0.2% bovine serum albumin. After incubation for 90 minutes at 37° C., the assay mixture was filtered onto GF/B Unifilter plates (Perkin-Elmer catalog number 6005177) and washed with 3 mL of ice-cold buffer per well. Filters were air dried and 35 μL of scintillation cocktail added to each well. Plates were counted in a Microbeta counter for bound radioactivity. Non-specific binding was measured by inhibition of binding of [I^125]-NDP-α-MSH in the presence of 1 μM NDP-α-MSH. Maximal specific binding (100%) was defined as the difference in radioactivity (cpm) bound to cell membranes in the absence and presence of 1 μM NDP-α-MSH. Each assay was conducted in duplicate and the actual mean values are described, with results less than 0% reported as 0%. Ki values for peptides of the present invention were determined using Graph-Pad PRISM® curve-fitting software.
as §1

The target in a further experiment is T3, hMCR-4 (Homo sapiens, UniProt P32245).
T3 construct: expressed in transfected cells; host or cells: HEK-293 cells (membrane homogenates)
T3 sequence (P32245 whole entry): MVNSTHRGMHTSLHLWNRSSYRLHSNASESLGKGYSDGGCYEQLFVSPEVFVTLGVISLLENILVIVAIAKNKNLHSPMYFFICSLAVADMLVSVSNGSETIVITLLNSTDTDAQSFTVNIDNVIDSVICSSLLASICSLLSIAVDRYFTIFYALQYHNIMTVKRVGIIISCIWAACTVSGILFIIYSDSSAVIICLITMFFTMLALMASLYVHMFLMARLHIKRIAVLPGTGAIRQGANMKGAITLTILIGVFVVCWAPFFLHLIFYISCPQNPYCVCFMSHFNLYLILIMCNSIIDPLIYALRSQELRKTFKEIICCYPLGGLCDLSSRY
As to the kind of experiment: Competitive inhibition binding assay using [I125]-NDP-α-MSH, hMCR-4 membranes. The settings on record: HEK-293 membranes, recombinant human MCR-4, [I125]-NDP-α-MSH; read-out: MC-4 Ki (average). As for the experimental part: as §2, §1

Where a SMILES comes first, the peptide text is derived from it. [ ]: non-standard residue; d: D form. Nle = CCCC[C@H](N)C(=O)O; Sar = CNCC(=O)O

T1 sequence (Q01726 whole entry): as the sequence (Q01726 whole entry) above

Regarding `CCCC[C@H](NC(C)=O)C(=O)N[C@@H](C)C(=O)N[C@@H](Cc1c[nH]cn1)C(=O)N[C@@H](Cc1ccccc1)C(=O)N[C@@H](CCCNC(=N)N)C(=O)N[C@@H](C)C(=O)N[C@@H](Cc1c[nH]c2ccccc12)C(N)=O` [Example 9.6, Ac-Nle-Ala-His-Phe-Arg-Ala-Trp-NH2] (Ac-[Nle]AHFRAW-NH2), on hMCR-1, the Emax (in general, the size of the effect at its maximum, as opposed to the concentration needed) was 72% and the 50% effective concentration (EC50) – broadly, the concentration that produces a half-maximal response – worked out at 4 nM.
For the compound `CCCC[C@H](NC(C)=O)C(=O)N[C@@H](C)C(=O)N[C@@H](Cc1c[nH]cn1)C(=O)N[C@H](Cc1ccccc1)C(=O)N[C@@H](CCCNC(=N)N)C(=O)N[C@@H](C)C(=O)N[C@H](Cc1c[nH]c2ccccc12)C(N)=O` [Example 9.9, Ac-Nle-Ala-His-D-Phe-Arg-Ala-D-Trp-NH2] (Ac-[Nle]AH[dF]RA[dW]-NH2), on hMCR-1, the maximum response (Emax) worked out at 70%. The figures for the inhibitory constant (Ki) on hMCR-1a and at hMCR-4 were 7 nM and 215 nM, respectively.
On to `CCCC[C@H](NC(C)=O)C(=O)N[C@@H](C)C(=O)N[C@@H](Cc1c[nH]cn1)C(=O)N[C@H](Cc1ccccc1)C(=O)N[C@@H](CCCNC(=N)N)C(=O)N(C)CC(=O)N[C@@H](Cc1c[nH]c2ccccc12)C(N)=O` [Example 9.4, Ac-Nle-Ala-His-D-Phe-Arg-Sar-Trp-NH2] (Ac-[Nle]AH[dF]R[Sar]W-NH2), for which, on hMCR-1, the Emax is 77% and the concentration for a half-maximal effect (EC50) is 0.17 nM. Moreover, at hMCR-1a, the inhibition constant (Ki) (as a rule, the equilibrium dissociation constant of an inhibitor or competing ligand from its target) is 2 nM. Also, on hMCR-4, the Ki came out at 870 nM.
As to `CCCC[C@H](NC(C)=O)C(=O)N[C@@H](Cc1c[nH]cn1)C(=O)N[C@@H](Cc1ccccc1)C(=O)N[C@@H](CCCNC(=N)N)C(=O)N[C@@H](C)C(=O)N[C@@H](Cc1c[nH]c2ccccc12)C(N)=O` [Example 9.8, Ac-Nle-His-Phe-Arg-Ala-Trp-NH2] (Ac-[Nle]HFRAW-NH2), the Emax on hMCR-1 was found to be 55%.
Consider `CCCC[C@H](NC(C)=O)C(=O)N[C@@H](Cc1c[nH]cn1)C(=O)N[C@H](Cc1ccccc1)C(=O)N[C@@H](CCCNC(=N)N)C(=O)N[C@@H](C)C(=O)N[C@@H](Cc1c[nH]c2ccccc12)C(N)=O` [Example 9.3, Ac-Nle-His-D-Phe-Arg-Ala-Trp-NH2] (Ac-[Nle]H[dF]RAW-NH2), for which, on hMCR-1, the maximal effect (Emax) was 95% and the EC50 came to 1 nM.
As for `CCCC[C@H](NC(C)=O)C(=O)N[C@@H](C)C(=O)N[C@@H](C)C(=O)N[C@H](Cc1ccccc1)C(=O)N[C@@H](CCCNC(=N)N)C(=O)N[C@@H](C)C(=O)N[C@@H](Cc1c[nH]c2ccccc12)C(N)=O` [Example 9.17, Ac-Nle-Ala-Ala-D-Phe-Arg-Ala-Trp-NH2] (Ac-[Nle]AA[dF]RAW-NH2), at hMCR-1, the Emax worked out at 94%.
As to `CCCC[C@H](NC(C)=O)C(=O)N[C@@H](C)C(=O)N[C@@H](Cc1ccccc1)C(=O)N[C@H](Cc1ccccc1)C(=O)N[C@@H](CCCNC(=N)N)C(=O)N[C@@H](C)C(=O)N[C@@H](Cc1c[nH]c2ccccc12)C(N)=O` [Example 9.19, Ac-Nle-Ala-Phe-D-Phe-Arg-Ala-Trp-NH2] (Ac-[Nle]AF[dF]RAW-NH2), on hMCR-1, the maximum response (Emax) is 99% and the EC50 was 6 nM. Besides, on hMCR-1a, the Ki was found to be 20 nM.
Consider `CCCC[C@H](NC(C)=O)C(=O)N[C@@H](C)C(=O)N[C@@H](Cc1c[nH]cn1)C(=O)N[C@@H](Cc1ccccc1)C(=O)N[C@@H](CCCNC(=N)N)C(=O)NCC(=O)N[C@@H](Cc1c[nH]c2ccccc12)C(N)=O` [Example 9.7, Ac-Nle-Ala-His-Phe-Arg-Gly-Trp-NH2] (Ac-[Nle]AHFRGW-NH2), for which the Emax on hMCR-1 was determined as 75%.
The same measure, in the same setting: next, `CCCC[C@H](NC(C)=O)C(=O)N[C@@H](C)C(=O)N[C@H](Cc1ccccc1)C(=O)N[C@@H](CCCNC(=N)N)C(=O)N[C@@H](C)C(=O)N[C@@H](Cc1c[nH]c2ccccc12)C(N)=O` [Example 9.10, Ac-Nle-Ala-D-Phe-Arg-Ala-Trp-NH2] (Ac-[Nle]A[dF]RAW-NH2): 85%.
On the same count and under the same terms, next, `CCCC[C@H](NC(C)=O)C(=O)N[C@@H](C)C(=O)N[C@@H](CCCNC(=N)N)C(=O)N[C@H](Cc1ccccc1)C(=O)N[C@@H](CCCNC(=N)N)C(=O)N[C@@H](C)C(=O)N[C@@H](Cc1c[nH]c2ccccc12)C(N)=O` [Example 9.18, Ac-Nle-Ala-Arg-D-Phe-Arg-Ala-Trp-NH2] (Ac-[Nle]AR[dF]RAW-NH2): 106%.
With `CCCC[C@H](NC(C)=O)C(=O)N[C@@H](C)C(=O)N[C@@H](Cc1c[nH]cn1)C(=O)N[C@H](Cc1ccccc1)C(=O)N[C@@H](C)C(=O)N[C@@H](C)C(=O)N[C@@H](Cc1c[nH]c2ccccc12)C(N)=O` [Example 9.16, Ac-Nle-Ala-His-D-Phe-Ala-Ala-Trp-NH2] (Ac-[Nle]AH[dF]AAW-NH2), on hMCR-1, the maximum response (Emax) turned out to be 99% and the concentration giving a half-maximal response (EC50) turned out to be 4 nM.
For `CCCC[C@H](NC(C)=O)C(=O)N[C@@H](C)C(=O)N[C@@H](Cc1c[nH]cn1)C(=O)N[C@H](Cc1ccccc1)C(=O)N[C@@H](CCCNC(=N)N)C(=O)N1CCC[C@@H]1C(=O)N[C@H](Cc1c[nH]c2ccccc12)C(N)=O` [Example 9.12, Ac-Nle-Ala-His-D-Phe-Arg-D-Pro-D-Trp-NH2] (Ac-[Nle]AH[dF]R[dP][dW]-NH2), at hMCR-1, the Emax amounted to 72% and the EC50 came to 2 nM. Besides, on hMCR-1a, the inhibition constant (Ki) came out at 20 nM.
Take `CCCC[C@H](NC(C)=O)C(=O)N[C@@H](C)C(=O)N[C@@H](Cc1c[nH]cn1)C(=O)N[C@H](Cc1ccccc1)C(=O)N[C@@H](CCCNC(=N)N)C(=O)N[C@@H](C)C(=O)N[C@@H](Cc1c[nH]c2ccccc12)C(N)=O` [Example 9.1, Ac-Nle-Ala-His-D-Phe-Arg-Ala-Trp-NH2] (Ac-[Nle]AH[dF]RAW-NH2): at hMCR-1, the maximal effect (Emax) stood at 96%.
The same measure, in the same setting: next, `CCCC[C@H](NC(C)=O)C(=O)N[C@@H](C)C(=O)N[C@@H](Cc1c[nH]cn1)C(=O)N[C@H](Cc1ccccc1)C(=O)N[C@@H](CCCNC(=N)N)C(=O)N1CCC[C@H]1C(=O)N[C@@H](Cc1c[nH]c2ccccc12)C(N)=O` [Example 9.2, Ac-Nle-Ala-His-D-Phe-Arg-Pro-Trp-NH2] (Ac-[Nle]AH[dF]RPW-NH2): 78%.
For the compound `CCCC[C@H](NC(C)=O)C(=O)N[C@@H](C)C(=O)N[C@@H](Cc1c[nH]cn1)C(=O)N[C@H](Cc1ccccc1)C(=O)N[C@@H](CCCNC(=N)N)C(=O)N[C@@H](C)C(=O)N[C@@H](Cc1c[nH]c2ccccc12)C(=O)O` [Example 9.14, Ac-Nle-Ala-His-D-Phe-Arg-Ala-Trp-OH] (Ac-[Nle]AH[dF]RAW-OH), the Emax on hMCR-1 turned out to be 73%. At hMCR-1a, the Ki was 6 nM.
With `CCCC[C@H](NC(C)=O)C(=O)N[C@@H](C)C(=O)N[C@@H](Cc1c[nH]cn1)C(=O)N[C@H](Cc1ccccc1)C(=O)N[C@@H](CCCNC(=N)N)C(=O)NCC(=O)N[C@@H](Cc1c[nH]c2ccccc12)C(N)=O` [Example 9.5, Ac-Nle-Ala-His-D-Phe-Arg-Gly-Trp-NH2] (Ac-[Nle]AH[dF]RGW-NH2), the Emax on hMCR-1 was 90%.
Regarding `CCCC[C@H](NC(C)=O)C(=O)N[C@@H](C)C(=O)N[C@@H](CCCCN)C(=O)N[C@H](Cc1ccccc1)C(=O)N[C@@H](CCCNC(=N)N)C(=O)N[C@@H](C)C(=O)N[C@@H](Cc1c[nH]c2ccccc12)C(N)=O` [Example 9.20, Ac-Nle-Ala-Lys-D-Phe-Arg-Ala-Trp-NH2] (Ac-[Nle]AK[dF]RAW-NH2), the Emax at hMCR-1 amounted to 107%. The Ki on hMCR-1a is 4 nM.
